Legend:
TLR9 = molecular target: T1, TLR9 (Homo sapiens, UniProt Q9NR96); assay: HEK293-Blue-hTLR-9 cells assay; format: cell-based; design: host or cells: HEK293 (HEK-Blue hTLR9); conditions: HEK293-Blue-hTLR9 cells, ODN2006 stimulation, 20 hrs, SEAP reporter; read-out: HEK/hTLR9 IC50
T1 sequence (Q9NR96 26-1032): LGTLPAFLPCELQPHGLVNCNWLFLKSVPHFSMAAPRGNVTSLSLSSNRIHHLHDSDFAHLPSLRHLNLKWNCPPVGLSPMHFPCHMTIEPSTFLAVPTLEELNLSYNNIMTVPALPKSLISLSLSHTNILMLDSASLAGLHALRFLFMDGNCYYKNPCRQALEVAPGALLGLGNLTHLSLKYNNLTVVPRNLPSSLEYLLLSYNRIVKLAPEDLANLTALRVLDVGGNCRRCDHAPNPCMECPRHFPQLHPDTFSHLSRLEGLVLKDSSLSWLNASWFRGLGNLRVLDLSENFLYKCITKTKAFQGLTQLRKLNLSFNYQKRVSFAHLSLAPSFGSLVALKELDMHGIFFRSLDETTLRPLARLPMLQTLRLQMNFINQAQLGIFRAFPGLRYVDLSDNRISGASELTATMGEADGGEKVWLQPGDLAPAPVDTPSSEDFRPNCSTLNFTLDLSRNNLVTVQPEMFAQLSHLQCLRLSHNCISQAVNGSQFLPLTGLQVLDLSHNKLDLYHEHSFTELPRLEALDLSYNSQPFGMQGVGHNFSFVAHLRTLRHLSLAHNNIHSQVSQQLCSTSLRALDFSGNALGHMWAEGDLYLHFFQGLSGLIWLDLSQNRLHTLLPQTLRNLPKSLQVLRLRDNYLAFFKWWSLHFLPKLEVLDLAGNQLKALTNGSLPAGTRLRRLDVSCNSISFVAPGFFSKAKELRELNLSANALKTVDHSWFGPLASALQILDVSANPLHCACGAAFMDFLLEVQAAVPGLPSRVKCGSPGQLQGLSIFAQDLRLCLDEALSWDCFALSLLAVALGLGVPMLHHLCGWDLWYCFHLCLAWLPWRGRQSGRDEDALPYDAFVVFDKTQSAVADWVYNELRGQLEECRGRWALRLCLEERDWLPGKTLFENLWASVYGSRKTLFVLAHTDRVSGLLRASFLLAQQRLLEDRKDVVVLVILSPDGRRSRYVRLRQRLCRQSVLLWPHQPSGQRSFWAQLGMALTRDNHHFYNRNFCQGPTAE
Source text: HEK293-Blue-hTLR-9 Cells Assay:
A stable HEK293-Blue-hTLR-9 cell line was purchased from InvivoGen (Cat. #: hkb-htlr9, San Diego, Calif., USA). These cells were originally designed for studying the stimulation of human TLR9 by monitoring the activation of NF-κB. A SEAP (secreted embryonic alkaline phosphatase) reporter gene was placed under the control of the IFN-β minimal promoter fused to five NF-κB and AP-1-binding sites. The SEAP was induced by activating NF-κB and AP-1 via stimulating HEK-Blue hTLR9 cells with TLR9 ligands. Therefore the reporter expression was declined by TLR9 antagonist under the stimulation of a ligand, such as ODN2006 (Cat. #: tlr1-2006-1, Invivogen, San Diego, Calif., USA), for incubation of 20 hrs. The cell culture supernatant SEAP reporter activity was determined using QUANTI-Blue™ kit (Cat. #: rep-01, Invivogen, San Diego, Calif., USA) at a wavelength of 640 nm, a detection medium that turns purple or blue in the presence of alkaline phosphatase.
HEK293-Blue-hTLR9 cells were incubated at a density of 250,000-450,000 cells/mL in a volume of 170 μL in a 96-well plate in Dulbecco's Modified Eagle's medium (DMEM) containing 4.5 g/L glucose, 50 U/mL penicillin, […], 2 mM L-glutamine, 10% (v/v) heat-inactivated fetal bovine serum with addition of 20 μL test compound in a serial dilution in the presence of final DMSO at 1% and 10 μL of 20 uM ODN2006 in above DMEM, perform incubation under 37° C. in a CO2 incubator for 20 hrs. Then 20 μL of the supernatant from each well was incubated with 180 μL Quanti-blue substrate solution at 37° C. for 2 h and the absorbance was read at 620-655 nm using a spectrophotometer. The signaling pathway that TLR9 activation leads to downstream NF-κB activation has been widely accepted, and therefore similar reporter assay was modified for evaluating TLR9 antagonist.

CYP2D6 = molecular target: T2, CYP2D6 (Homo sapiens, UniProt P10635); assay: CYP inhibition assay in human liver microsome; format: in vitro ADME; conditions: human liver microsomes, probe dextromethorphan, dextromethorphan substrate, percentage inhibition <0: not or weak inhibitor, read-out: CYP 2D6 inhibition % @ 10 μM
T2 construct: tissue BD-Gentest 452117; host or cells: human liver microsomes
Method: This is a high throughput screening assay used for assessment of reversible inhibition of CYP2D6 activity of test compounds in human liver microsome (HLM) in early discovery stage.
10 mM DMSO stock solutions of test compounds were diluted in DMSO to generate 2 mM intermediate stock solution. 250 nL of intermediate stock solution were transferred in duplicate into 3 separate 384 well microtitre plates (assay-ready plates). A mixture of HLM and each substrate was made up. 45 μL of HLM substrate mix was then transferred to each well of an assay ready plate and mixed. The negative (solvent) and positive control (standard inhibitor for CYP 2D6) were included in each assay ready plate. The assay ready plate was warmed to 37° C. in an incubator over 10 minutes. 5 μL pre-warmed NADPH regenerating system was added to each incubation well to start the reaction. Final incubation volume was 50 μL. The assay plate then was placed back in the 37° C. incubator. After 10 minutes incubation, incubates were quenched by addition of 50 μL 100% acetonitrile containing internal standards (20 ng/mL D3-Dextrorphan). The supernatants were collected for RapidFire/MS/MS analysis.
RapidFire online solid phase extraction/sample injection system (Agilent) coupled with API4000 triple quadrupole mass spectrometer (AB Sciex) were used for sample analysis. The mobile phase composed of acetonitrile and water supplemented with 0.1% formic acid. A C4 solid phase extraction cartridge is used for sample separation. MS detection is achieved in positive ion MRM mode.
Peak areas for substrate, metabolite and internal standard are determined using the RapidFire integrator software (version 3.6.12009.12296). Peak area ratios (PAR) of metabolite and internal standard (stable-labelled metabolite) are then calculated. The measurement window for each experiment is then defined:
PAR (0% activity)=average PAR for all incubations containing concentrated inhibitor;
Par (100% activity)=average PAR for all incubations containing no inhibitor (DMSO controls);
% Activity (test inhibitor)=
[PAR(test inhibitor)−PAR(0% activity)]/[PAR(100% activity)−PAR(0% activity)]; % Inhibition (test inhibitor)=100−% Activity (test inhibitor).

T2 sequence (P10635 whole entry): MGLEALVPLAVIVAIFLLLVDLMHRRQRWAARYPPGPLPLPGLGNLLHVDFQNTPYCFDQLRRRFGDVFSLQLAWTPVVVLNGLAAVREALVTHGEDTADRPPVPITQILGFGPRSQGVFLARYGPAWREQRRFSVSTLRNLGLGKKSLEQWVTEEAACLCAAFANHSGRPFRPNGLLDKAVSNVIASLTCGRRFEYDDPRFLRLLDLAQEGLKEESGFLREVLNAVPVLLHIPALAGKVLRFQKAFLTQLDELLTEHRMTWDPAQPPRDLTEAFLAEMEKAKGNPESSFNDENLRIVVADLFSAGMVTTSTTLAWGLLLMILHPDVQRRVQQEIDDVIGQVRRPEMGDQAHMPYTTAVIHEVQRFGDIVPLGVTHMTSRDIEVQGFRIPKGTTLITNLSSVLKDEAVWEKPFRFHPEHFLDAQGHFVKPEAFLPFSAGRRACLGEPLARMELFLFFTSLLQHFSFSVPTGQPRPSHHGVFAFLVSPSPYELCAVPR

IC50 (TLR9)	inhibition at 10 min, 10 µM (CYP2D6)	SMILES
80 nM	10.5%	C[C@@H]1CN(c2ccc(C#N)c3ncccc23)C[C@H](CN2CC(n3cc4c(n3)CCN[C@@H]4C)C2)O1 [Example 21, 5-[(2R,6S)-2-methyl-6-[[3-[(4R)-4-methyl-4,5,6,7-tetrahydropyrazolo[4,3-c]pyridin-2-yl]azetidin-1-yl]methyl]morpholin-4-yl]quinoline-8-carbonitrile]
70 nM	5.5%	C[C@@H]1CN(c2ccc(C#N)c3ncccc23)C[C@H](CN2CC(n3ncc4c3CCN[C@H]4C)C2)O1 [Example 22, 5-[(2R,6S)-2-methyl-6-[[3-[(4S)-4-methyl-4,5,6,7-tetrahydropyrazolo[4,3-c]pyridin-1-yl]azetidin-1-yl]methyl]morpholin-4-yl]quinoline-8-carbonitrile]
84 nM	3%	C[C@@H]1CN(c2ccc(C#N)c3ncccc23)C[C@H](CN2CC(n3cc4c(n3)CCN[C@H]4C)C2)O1 [Example 23, 5-[(2R,6S)-2-methyl-6-[[3-[(4S)-4-methyl-4,5,6,7-tetrahydropyrazolo[4,3-c]pyridin-2-yl]azetidin-1-yl]methyl]morpholin-4-yl]quinoline-8-carbonitrile]

Second part, the molecule before the results:

SMILES	IC50 (TLR9)	inhibition at 10 min, 10 µM (CYP2D6)
C[C@@H]1CN(c2ccc(C#N)c3ncccc23)C[C@H](CN2CCC(n3cc4c(n3)CCNC4)CC2)O1 [Example 36, 5-[(2R,6S)-2-methyl-6-[[4-(4,5,6,7-tetrahydropyrazolo[4,3-c]pyridin-2-yl)-1-piperidyl]methyl]morpholin-4-yl]quinoline-8-carbonitrile]	55 nM	20.3%
Cc1nn(C2CN(C[C@H]3CN(c4ccc(C#N)c5ncccc45)C[C@@H](C)O3)C2)c2c1CCNC2 [Example 42, 5-[(2R,6S)-2-methyl-6-[[3-(3-methyl-4,5,6,7-tetrahydropyrazolo[3,4-c]pyridin-1-yl)azetidin-1-yl]methyl]morpholin-4-yl]quinoline-8-carbonitrile]	134 nM	17.5%
